For one series, the system named is patients. The conditions noted are these: over ∼1 year; cited from earlier work.
For series [1], the target named is human glucagon like peptide-1 receptor (human) (UniProt P43220).
A short description of the next series: Water solubility. The format is physicochemical. The following applies: in distilled water. The procedure:
The synthesis of dicyanocobinamide (Cbi) was performed according to previously reported methods.[59] Briefly, to a 10 mL microwave reaction vessel containing a magnetic stir bar were added B12 (cyanocobalamin) (303.8 mg, 0.225 mmol) (see Figures S1–S6), sodium cyanide (NaCN) (36.9 mg, 0.7096 mmol), and 5 mL of EtOH, and the vessel was sealed. The reaction was heated to 120 °C for 10 min. Following completion of the microwave reaction, the remaining solution was transferred and diluted using isopropyl alcohol (iPrOH). The reaction was purified utilizing a normal-phase silica column. The reaction was eluted using 100% methanol (MeOH). The product eluted as a purple product. The isolated product was precipitated utilizing diethyl ether (Et2O) and allowed to dry producing a solid, purple product, 2 (see Figure 2), in 80% yield (187.4 mg, 0.1795 mmol). Solubility was measured to be 400 mg/mL in distilled water.

In series [2] the target is human glucagon like peptide-1 receptor (human) (UniProt P43220). Kind of series: AlphaScreen or HTRF; Taglite fluorescence competitive binding assay (Euroscreen Fast, Cat No. FAST0154B) on CHO-K1 cells at the human GLP-1R; agonist tracer GLP-1red at 4 nM, reference competitor nEx-4; nine concentrations from 1 pM to 1 uM, duplicate independent runs. Background: Bead proximity is the source of the signal in Alpha formats.

The target of the next series is rat GLP-1R (rat) (UniProt P32301).
A further series relates to shrews. Kind of series: Food intake and body weight (energy balance) in shrews. The series is classed as in vivo, Suncus murinus. The conditions noted are these: 5 nmol/kg IP, single dose, n = 10 shrews.

The values below come from publication PMC8279408.

Entries after “also recorded” stand apart in the source; their conditions may differ.

Chain of human glucagon like peptide-1 receptor (human) (P43220 24-463): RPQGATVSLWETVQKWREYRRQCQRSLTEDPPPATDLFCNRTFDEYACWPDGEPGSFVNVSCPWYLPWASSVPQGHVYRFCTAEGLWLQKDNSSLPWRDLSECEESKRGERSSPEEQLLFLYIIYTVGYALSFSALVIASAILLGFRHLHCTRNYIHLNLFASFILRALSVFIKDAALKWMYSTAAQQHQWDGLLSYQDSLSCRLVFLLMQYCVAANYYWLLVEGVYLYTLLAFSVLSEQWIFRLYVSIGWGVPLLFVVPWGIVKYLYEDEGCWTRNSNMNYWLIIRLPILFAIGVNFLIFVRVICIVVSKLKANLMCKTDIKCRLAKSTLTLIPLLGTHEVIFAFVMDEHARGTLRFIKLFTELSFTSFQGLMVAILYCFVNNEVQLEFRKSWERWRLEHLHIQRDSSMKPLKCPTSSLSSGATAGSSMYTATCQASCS
Chain of rat GLP-1R (rat) (P32301 22-463): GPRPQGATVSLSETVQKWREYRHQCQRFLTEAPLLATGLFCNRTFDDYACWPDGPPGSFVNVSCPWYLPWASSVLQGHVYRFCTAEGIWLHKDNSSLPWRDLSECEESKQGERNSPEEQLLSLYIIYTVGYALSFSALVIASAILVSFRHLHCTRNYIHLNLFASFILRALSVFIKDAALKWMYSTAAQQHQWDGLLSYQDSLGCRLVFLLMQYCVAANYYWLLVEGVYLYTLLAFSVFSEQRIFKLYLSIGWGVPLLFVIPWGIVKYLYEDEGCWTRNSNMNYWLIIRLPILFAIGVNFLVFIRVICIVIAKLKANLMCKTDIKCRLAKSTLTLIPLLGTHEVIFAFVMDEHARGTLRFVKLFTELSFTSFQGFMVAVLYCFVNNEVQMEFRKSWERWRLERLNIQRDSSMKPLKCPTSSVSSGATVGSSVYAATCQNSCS
Procedure for shrews: Food intake was evaluated using our custom-made feedometers, consisting of a standard plexiglass rodent housing cage (29 × 19 × 12.7 cm) with mounted food hoppers resting on a plexiglass cup (to account for spillage). Shrews had ad libitum access to powdered food through a circular (3 cm diameter) hole in the cage. Food was removed 1 h prior to the dark onset. […] Food intake was manually measured at 6, 24, and 48 h post injection. BW was measured at 0, 24, and 48 h.

For the compound “liraglutide (HAEGTFTSDVSSYLEGQAAKEFIAWLVRGRG; chains of the INN, looked up) [GLP-1R agonist]”, the Body weight reduction in the series on patients is on record as 5–6%.

In the case of “exendin-4 with K12 azido modification (from UniProt P26349 48-87) (peptide)”, the EC50 of agonism: cAMP FRET reporter H188 in HEK293 cells stably expressing the human GLP-1R in series [1] was 0.0125 nM.

Regarding `C/C1=C2/[N-]C([C@H](CC(N)=O)[C@@]2(C)CCC(=O)NCC(C)O)[C@]2(C)N=C(/C(C)=C3N=C(/C=C4N=C1[C@@H](CCC(N)=O)C\4(C)C)[C@@H](CCC(N)=O)[C@]\3(C)CC(N)=O)[C@@H](CCC(N)=O)[C@]2(C)CC(N)=O.[C-]#N.[C-]#N.[Co]` (stereo partly drawn) [compound 2, dicyanocobinamide], in the series “Water solubility”, the Solubility is listed as 400 mg/mL.

In series [2], “native Exendin-4 (from UniProt P26349 48-87) (peptide)” returned an IC50 of 4.97 nM. In the series with rat GLP-1R (rat), this compound registered an EC50 of functional agonism at the rat GLP-1R of 0.048 nM.

“exendin-4 with an azido-lysine added as residue 40 (from UniProt P26349 48-87) (peptide)” showed an EC50 of agonism: cAMP FRET reporter H188 in HEK293 cells stably expressing the human GLP-1R in series [1] of 0.0104 nM.

For Cbi-Ex4 [compound 1], the Food intake entry with shrews (6, 24, 48 h (72 h in Figure 6D)) is listed as “had no effect on food intake; also recorded: had no impact on feeding”. In the series on shrews (24 h), the Body weight entry is “No significant changes in body weight; also recorded: not observed”.

semaglutide: the Body weight reduction in the series with patients was 10–12%.

The Solubility is the dissolved amount per volume that the medium holds. Usually IC50 stands for the midpoint of a concentration-inhibition curve. Lower therefore signals higher potency.
